From PMC8125507, “Molecular Mechanism of Thymidylate Synthase Inhibition by N^4-Hydroxy-dCMP in View of Spectrophotometric and Crystallographic Studies” (International Journal of Molecular Sciences, 2021)

Experiments:
Type in all cases: binding
[1] = biological target: T1, TspTS (Trichinella spiralis, UniProt Q9NDD3); assay: X-ray crystal structure, co-crystal, […] Å; conditions: co-crystallized with meTHF, pH 7.1; covalent to Cys189 Sγ via pyrimidine C(6); bound form reduced at C(5); no folate seen
T1 construct: gene ts; recombinant, non-phosphorylated fraction; dimer; catalytic Cys189; residues 18-307 modelled in part

[2] = biological target: T2, mTS (Mus musculus, UniProt P07607); assay: X-ray crystal structure, co-crystal soaked with meTHF, […] Å; conditions: pH 6.7; folate derivative also bound; active site of both subunits, non-covalent
T2 construct: gene Tyms; recombinant, non-phosphorylated fraction for crystals; dimer; catalytic Cys189; residues 21-307 modelled

[3] = biological target: T3, CeTS (Caenorhabditis elegans, UniProt Q9Y052); assay: X-ray crystal structure, soaked crystal, […] Å; conditions: apoenzyme crystal soaked with 36 mM ligand ca. 80 min, pH 5.6; no folate; active site of both subunits, non-covalent
T3 construct: recombinant, non-phosphorylated fraction; dimer; catalytic Cys197; residues 24-312 modelled
T3 sequence (Q9Y052 entry or part of it): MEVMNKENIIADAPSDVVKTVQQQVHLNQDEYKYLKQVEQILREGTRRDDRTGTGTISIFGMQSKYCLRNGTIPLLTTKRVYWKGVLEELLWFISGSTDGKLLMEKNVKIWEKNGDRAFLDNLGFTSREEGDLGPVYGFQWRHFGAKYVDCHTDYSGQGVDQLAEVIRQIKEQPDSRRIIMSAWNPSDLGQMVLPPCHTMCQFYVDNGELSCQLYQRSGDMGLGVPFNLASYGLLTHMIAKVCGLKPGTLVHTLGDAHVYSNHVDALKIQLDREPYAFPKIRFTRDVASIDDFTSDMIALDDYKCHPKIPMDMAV

T2 sequence (P07607 whole entry, the tested form may be a part): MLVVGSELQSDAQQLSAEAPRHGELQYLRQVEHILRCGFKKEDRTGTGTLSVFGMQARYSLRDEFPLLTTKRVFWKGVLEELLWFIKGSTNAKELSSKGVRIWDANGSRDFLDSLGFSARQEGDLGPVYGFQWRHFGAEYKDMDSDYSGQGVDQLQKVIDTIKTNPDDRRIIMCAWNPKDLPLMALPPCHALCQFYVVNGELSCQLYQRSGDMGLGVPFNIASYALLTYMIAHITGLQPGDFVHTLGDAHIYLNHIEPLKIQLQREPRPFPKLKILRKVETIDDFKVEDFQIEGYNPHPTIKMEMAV
T1 sequence (Q9NDD3 entry or part of it): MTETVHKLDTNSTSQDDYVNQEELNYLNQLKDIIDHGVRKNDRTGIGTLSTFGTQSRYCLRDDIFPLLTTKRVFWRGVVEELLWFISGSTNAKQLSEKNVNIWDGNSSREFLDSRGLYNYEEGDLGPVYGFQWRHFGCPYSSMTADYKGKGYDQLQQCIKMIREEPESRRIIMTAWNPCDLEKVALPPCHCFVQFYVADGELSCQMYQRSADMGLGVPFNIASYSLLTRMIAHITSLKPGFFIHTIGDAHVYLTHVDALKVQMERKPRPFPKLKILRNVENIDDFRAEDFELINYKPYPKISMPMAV

Compound: O=c1nc(NO)ccn1[C@H]1C[C@H](O)[C@@H](COP(=O)(O)O)O1 [N^4-OH-dCMP, N^4-hydroxy-2′-deoxycytidine 5′-monophosphate]
- X-ray crystal structure, co-crystal, 1.18 Å [1]: a clear electron density was present, identified as the N^4-OH-dCMP molecule
- X-ray crystal structure, co-crystal soaked with meTHF, 2.13 Å [2]: N^4-OH-dCMP molecules are modeled with full occupancy
- X-ray crystal structure, soaked crystal, 2.8 Å [3]: with N^4-OH-dCMP molecules in both active sites refined with full occupancy
